Like-named read-outs stand apart in the source and are kept apart here.
Target: T1, Human complement C1s enzyme (Homo sapiens, UniProt P09871)
T1 sequence (P09871 438-688 limits assumed): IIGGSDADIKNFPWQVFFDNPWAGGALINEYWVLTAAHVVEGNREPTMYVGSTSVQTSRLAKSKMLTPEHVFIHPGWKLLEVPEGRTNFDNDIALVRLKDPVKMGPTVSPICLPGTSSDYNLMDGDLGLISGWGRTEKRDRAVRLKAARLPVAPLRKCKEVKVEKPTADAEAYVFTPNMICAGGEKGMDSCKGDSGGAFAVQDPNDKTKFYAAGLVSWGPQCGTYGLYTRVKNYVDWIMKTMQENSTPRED
T1 sequence (P09871 16-437 partner limits assumed): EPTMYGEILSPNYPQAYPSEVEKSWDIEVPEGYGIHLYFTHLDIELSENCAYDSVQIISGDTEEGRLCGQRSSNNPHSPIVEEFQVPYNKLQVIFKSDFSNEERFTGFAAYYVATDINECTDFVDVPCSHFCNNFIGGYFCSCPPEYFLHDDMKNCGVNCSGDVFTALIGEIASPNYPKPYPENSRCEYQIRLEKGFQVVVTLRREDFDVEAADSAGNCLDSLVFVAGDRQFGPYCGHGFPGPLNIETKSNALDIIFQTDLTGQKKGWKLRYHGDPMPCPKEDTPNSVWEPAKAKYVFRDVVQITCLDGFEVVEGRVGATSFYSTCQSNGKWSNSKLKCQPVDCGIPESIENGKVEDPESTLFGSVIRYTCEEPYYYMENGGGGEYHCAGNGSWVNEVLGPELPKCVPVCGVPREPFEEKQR
Test: Human C1s enzyme assay
Assay type: biochemical
Method in brief: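 Serum-purified human C1s (1.16 nM final) preincubated 5 min at room temperature with compound in 50 mM Tris, 1 M NaCl, pH 7.5. Z-L-Lys-SBzl and DTNB added at 100 μM each; A405 followed every 30 s for 30 min, and IC50 obtained by nonlinear regression of reaction rates.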

[1] = human complement C1s enzyme 1.16 nM, substrate Z-L-Lys-SBzl 100 μM, 5 min preincubation, read-out: IC50 (Stars), C1s Inhibiting Activity

| Compound | IC50 [1] | IC50 |
| --- | --- | --- |
| C[C@H]1C[C@@H](C(=O)N[C@H](C)c2cc3cnccc3[nH]2)N(C(=O)CNC(=O)c2ccc3c(c2)-c2ccccc2C3(F)F)C1 [Compound 166, (2S,4S)-N-((R)-1-(1H-pyrrolo[3,2-c]pyridin-2-yl)ethyl)-1-((9,9-difluoro-9H-fluorene-3-carbonyl)glycyl)-4-methylpyrrolidine-2-carboxamide] | < 100 nM |  |
| Cc1cc(C(=O)NCC(=O)N2C[C@H](OC(F)F)C[C@H]2C(=O)N[C@H](C)c2cc3cnccc3[nH]2)ccc1Oc1ccccc1 [Compound 81] | < 100 nM |  |
| C[C@@]12C[C@@H]1N(C(=O)CNC(=O)c1ccc3c(c1)Oc1ccccc1S3)[C@H](C(=O)NCc1cc3cnccn3c1)C2 [Compound 271, (1S,3S,5S)-5-methyl-2-((phenoxathiine-3-carbonyl)glycyl)-N-(pyrrolo[1,2-a]pyrazin-7-ylmethyl)-2-azabicyclo[3.1.0]hexane-3-carboxamide] | < 100 nM |  |
| C[C@@H](NC(=O)[C@@H]1C[C@@H](OC(F)F)CN1C(=O)CNC(=O)c1cccc2c1-c1ccccc1C2(F)F)c1cc2cnccc2[nH]1 [Compound 134, (2S,4R)-N-((R)-1-(1H-pyrrolo[3,2-c]pyridin-2-yl)ethyl)-1-((9,9-difluoro-9H-fluorene-4-carbonyl)glycyl)-4-(difluoromethoxy)pyrrolidine-2-carboxamide] | > 1000 nM |  |
| Cc1cc(Oc2ccc(C)cc2F)cc(C(=O)NCC(=O)N2C[C@H](OC(F)F)C[C@H]2C(=O)NCc2cc3cnccc3[nH]2)c1 [Compound 328, (2S,4R)-N-((1H-pyrrolo[3,2-c]pyridin-2-yl)methyl)-4-(difluoromethoxy)-1-((3-(2-fluoro-4-methylphenoxy)-5-methylbenzoyl)glycyl)pyrrolidine-2-carboxamide] | < 100 nM |  |
| Cc1ccc(-c2cnc(C(=O)NCC(=O)N3CC4(C[C@H]3C(=O)N[C@H](C)c3cc5cnccc5[nH]3)OCCO4)c(F)c2)cc1 [Compound 115, (S)-N-((R)-1-(1H-pyrrolo[3,2-c]pyridin-2-yl)ethyl)-7-((3-fluoro-5-(p-tolyl)picolinoyl)glycyl)-1,4-dioxa-7-azaspiro[4.4]nonane-8-carboxamide] | > 1000 nM |  |
| CCc1ccc(Oc2cccc(C(=O)NCC(=O)N3C[C@H](OC(F)F)C[C@H]3C(=O)NCc3cc4cnccc4[nH]3)c2)s1 [Compound 368, (2S,4R)-4-(difluoromethoxy)-1-[2-[[3-[(5-ethyl-2-thienyl)oxy]benzoyl]amino]acetyl]-N-(1H-pyrrolo[3,2-c]pyridin-2-ylmethyl)pyrrolidine-2-carboxamide] | < 100 nM |  |
| O=C(NCC(=O)N1CC2(C[C@H]1C(=O)O)OCCO2)c1ccc(Oc2ccccc2)cc1 [Compound 119, (S)-7-((4-phenoxybenzoyl)glycyl)-1,4-dioxa-7-azaspiro[4.4]nonane-8-carboxylic acid] | > 1000 nM |  |
| Cc1ccc2oc3ccc(C(=O)NCC(=O)N4C[C@H](OC(F)F)C[C@H]4C(=O)NCc4cc5cnccc5[nH]4)cc3c2c1 [Compound 334, (2S,4R)-N-((1H-pyrrolo[3,2-c]pyridin-2-yl)methyl)-4-(difluoromethoxy)-1-((8-methyldibenzo[b,d]furan-2-carbonyl)glycyl)pyrrolidine-2-carboxamide] | < 100 nM |  |
| Cc1ccc(Oc2cccc(C(=O)NCC(=O)N3C[C@H](OC(F)F)C[C@H]3C(=O)NCc3cc4cnccc4[nH]3)c2)c(Cl)c1 [Compound 292, (2S,4R)-N-((1H-pyrrolo[3,2-c]pyridin-2-yl)methyl)-1-((3-(2-chloro-4-methylphenoxy)benzoyl)glycyl)-4-(difluoromethoxy)pyrrolidine-2-carboxamide] | < 100 nM |  |
| C[C@@H](NC(=O)[C@@H]1CC2(CN1C(=O)CNC(=O)c1ccc3c(c1)Oc1ccccc1S3)OCCO2)c1cc2cnccc2s1 [Compound 206, (S)-7-((phenoxathiine-3-carbonyl)glycyl)-N-((R)-1-(thieno[3,2-c]pyridin-2-yl)ethyl)-1,4-dioxa-7-azaspiro[4.4]nonane-8-carboxamide] | < 100 nM |  |
| Cc1cccc(-c2nc(C)cc(C(=O)NCC(=O)N3CC4(C[C@H]3C(=O)NCc3cc5cnccc5[nH]3)OCCO4)c2C)c1 [Compound 306, (S)-N-((1H-pyrrolo[3,2-c]pyridin-2-yl)methyl)-7-((3,6-dimethyl-2-(m-tolyl)isonicotinoyl)glycyl)-1,4-dioxa-7-azaspiro[4.4]nonane-8-carboxamide] | < 100 nM |  |
| O=C(NCC(=O)N1C[C@@](F)(CF)C[C@H]1C(=O)NCc1cc2cnccc2[nH]1)c1ccc2oc3ccccc3c2c1 [Compound 187, (2S,4R)-N-((1H-pyrrolo[3,2-c]pyridin-2-yl)methyl)-1-((dibenzo[b,d]furan-2-carbonyl)glycyl)-4-fluoro-4-(fluoromethyl)pyrrolidine-2-carboxamide] | < 100 nM |  |
| O=C(NCC(=O)N1CC2(C[C@H]1C(=O)NCc1nc3cnccc3s1)OCCO2)c1ccc2c(c1)Oc1ccccc1S2 [Compound 41, (S)-7-((phenoxathiine-3-carbonyl)glycyl)-N-(thiazolo[4,5-c]pyridin-2-ylmethyl)-1,4-dioxa-7-azaspiro[4.4]nonane-8-carboxamide] | > 1000 nM |  |
| O=C(NCC(=O)N1CC2(C[C@H]1C(=O)NCc1cc3nccnc3[nH]1)OCCO2)c1ccc2c(c1)Oc1ccccc1S2 [Compound 48, (S)-N-((5H-pyrrolo[2,3-b]pyrazin-6-yl)methyl)-7-((phenoxathiine-3-carbonyl)glycyl)-1,4-dioxa-7-azaspiro[4.4]nonane-8-carboxamide] | > 1000 nM |  |
| Cc1ccc(Oc2cccc(C(=O)NCC(=O)N3C[C@H](OC(F)F)C[C@H]3C(=O)NCc3cc4cnccc4[nH]3)c2)c(C)c1 [Compound 298, (2S,4R)-N-((1H-pyrrolo[3,2-c]pyridin-2-yl)methyl)-4-(difluoromethoxy)-1-((3-(2,4-dimethylphenoxy)benzoyl)glycyl) pyrrolidine-2-carboxamide] | < 100 nM |  |
| C[C@@H](NC(=O)[C@@H]1C[C@]2(C)C[C@@H]2N1C(=O)CNC(=O)c1ccc2c(c1)Oc1ccccc1S2)c1cc2cnccc2s1 [Compound 231, (1S,3S,5S)-5-methyl-2-((phenoxathiine-3-carbonyl)glycyl)-N-((R)-1-(thieno[3,2-c]pyridin-2-yl)ethyl)-2-azabicyclo[3.1.0]hexane-3-carboxamide] | < 100 nM |  |
| C[C@@H](NC(=O)[C@@H]1C[Si](C)(C)CN1C(=O)CNC(=O)c1ccc2c(c1)Oc1ccccc1S2)c1cc2cnccc2[nH]1 [Compound 168, (R)-N-((R)-1-(1H-pyrrolo[3,2-c]pyridin-2-yl)ethyl)-3,3-dimethyl-1-((phenoxathiine-3-carbonyl)glycyl)-1,3-azasilolidine-5-carboxamide] |  | < 100 nM |
